Patent EP1844786A1, “Extracts of Curcuma longa and their cosmetic and dermatological uses” (EXSYMOL S.A.M., priority 2006, dated 2007)
Read-outs that look alike come from different tables or passages of the source.

Test system: métabolisation de la testostérone dans des épidermes reconstruits d'origine humaine
Assay: Effect on testosterone metabolisation in reconstructed human epidermis (Test 1; labelled testosterone, silica-plate chromatography, radioactivity counting)
Type: cell-based
Conditions: 10^-4M; for inhibition at 100 µM: relative to untreated control, 24 h, mean of 3 epidermes
Description: Test 1 : mise en évidence de l'effet d'un extrait de Curcuma longa sur la métabolisation de la testostérone dans des épidermes reconstruits d'origine humaine (fournisseur : SkinEthic®).
Ces épidermes constituent un matériel biologique présentant une forte homologie avec l'épiderme humain, et permettant de tester de manière réaliste un produit destiné à être appliqué à la surface de la peau. Un extrait glycolique de feuilles de Curcuma longa a donc été testé, à différentes concentrations. Leur action a par ailleurs été comparée à celle d'un inhibiteur spécifique de la 5-alpha-réductase, le Finastéride® (molécule de référence dans ce type d'évaluation). Des épidermes reconstruits de 17 jours ont ainsi été pré-cultivés en plaque 24 puits, pendant 24 heures. Puis 100 µl de testostérone marquée ont été déposés sur la face cornée de chaque épiderme. Après 24 nouvelles heures, les milieux de culture ont été prélevés pour analyse. Il est alors regardé la métabolisation de la testostérone par chromatographie sur plaque de silice et par comptage direct de la radioactivité des différents spots, à l'aide du logiciel "Optiquant version 3 (packard)". Différents métabolites, et en particulier la dihydrotestostérone (DHT), sont identifiés à l'aide de standards. Chaque point est la moyenne de 3 mesures effectuées sur des épidermes différents.

`CC(C)(C)NC(=O)[C@H]1CC[C@H]2[C@@H]3CC[C@H]4NC(=O)C=C[C@]4(C)[C@H]3CC[C@]12C` [Finastéride] was tested, and the inhibition at 100 µM (read-out: % inhibition métabolisation testostérone) was 54%, the inhibition at 100 µM (read-out: % inhibition transformation en DHT) was 92% and the “Ratio DHT/testo.” value (untreated control 2,2) was 0,1.
